Measurements taken from patent publication US11365183B2, “Eicosanoid derivatives” (MAX-DELBRUECK-CENTRUM FUER MOLEKULARE MEDIZIN, priority 2009, dated 2022).

Legend:
[1] = tested on: neonatal rat cardiomyocytes (NRCMs); assay: Response of NRCMs to increased extracellular Ca2+ and ß-adrenergic stimulation; assay type: cell-based; settings: 30 nM added 5 min before
Experimental: Compound C11 was synthesized as described above (example 11). NRCMs were isolated and cultured as in Example 19. The basal Ca^2+-concentration of the medium was 1.2 mM. Increased extracellular Ca^2+-concentrations (2.2, 5.2 and 8.2 mM) were adjusted by adding appropriate amounts of a 1 M CaCl2 solution to the cultures. Isoproterenol (from Sigma-Aldrich) was used as ß-adrenoreceptor agonist and added to the cultures to give final concentrations of 0.1, 1 or 10 μM. C11 was used at a final concentration of 30 nM and added to the cultures 5 min before changing the Ca^2+-concentration or adding isoproterenol. Controls were performed in the absence of C11.

[2] = tested on: neonatal rat cardiomyocytes (NRCMs); assay: Chronotropic effect on spontaneous beating rate of cultured neonatal rat cardiomyocytes (identification of agonists); assay type: cell-based; settings: 30 nM, incubation time 5 min
Excerpt: This negative chronotropic effect reflects the capacity of the analogs to interact with and to activate a G-protein coupled receptor or other primary cellular targets that reduce the contractility of cardiomyocytes under basal and stress-induced conditions.
The compounds included EPA and 17,18-EETeTr (compounds 01 and 02; purchased from Cayman Chemical) as well as all but one (compound 16) of the analogs synthesized as described in examples 1-24. The R,S— and S,R-enantiomers of 17,18-EETeTr (compounds 03 and 04) were prepared resolving the racemic mixture (compound 02) by means of chiral-phase HPLC as described previously (Barbosa-Sicard E, Markovic M, Honeck H, Christ B, Muller D N, Schunck W H. Biochem Biophys Res Commun. 2005 Apr. 22; 329(4):1275-81). Before use, the compounds to be tested were prepared as 1000-fold stock solutions in ethanol.
Isolation and cultivation of NRCMs were performed as described previously (Wallukat, G; Wollenberger, A. Biomed Biochim Acta. 1987; 78:634-639; Wallukat G, Homuth V, Fischer T, Lindschau C, Horstkamp B, Jupner A, Baur E, Nissen E, Vetter K, Neichel D, Dudenhausen J W, Haller H, Luft F C. J Clin Invest. 1999; 103: 945-952). Briefly, neonatal Wistar rats (1-2 days old) were killed in conformity to the recommendations of the Community of Health Service of the City of Berlin and the cardiomyocytes were dissociated from the minced ventricles with a 0.2% solution of crude trypsin. The isolated cells were then cultured as monolayers on the bottom (12.5 cm^2) of Falcon flasks in 2.5 ml of Halle S M 20-I medium equilibrated with humidified air. The medium contained 10% heat-inactivated FCS and 2 μmol/l fluoro-deoxyuridine (Serva, Heidelberg, Germany), the latter to prevent proliferation of non-muscle cells. The NRCMs (2.4×10^6 cells/flask) were cultured at 37° C. in an incubator. After 5 to 7 days, the NRCMs formed spontaneously beating cell clusters. […] On the day of the experiment, the culture medium was replaced by 2.0 ml fresh serum-containing medium. Two hours later, the beating rates were monitored at 37° C. using an inverted microscope equipped with a heating stage. To determine the basal rate, 6 to 8 individual clusters were selected and the number of contractions was counted for 15 sec. After that, the compound to be tested was added to the culture and the beating rate of the same clusters was monitored 5 min later again. Based on the difference between the basal and compound-induced beating rate of the individual clusters, the chronotropic effects (Δ beats/min) were calculated and are given as mean±SE values. N refers to the number of clusters monitored which originated, in general, from at least three independent NRCM cultures.
This effect was fully expressed using an EPA concentration of 3.3 μM and an incubation time of 30 min. In contrast, 17,18-EETeTr (C02) produced the same effect almost immediately and already in the low nanomolar range (EC50 of 1-2 nM, data not shown). To compare the activity of 17,18-EETeTr with that of its synthetic analogs, all these compounds were tested at a final concentration of 30 nM and using an incubation time of 5 min.

## CCNC(=O)NCCCC/C=C\CCCCCCCCCC(=O)O [Compound C11, 16-(3-Ethylureido)hexadec-11(Z)-enoic Acid]
[1]; 1.2 mM Ca2+ and up to 8.2 mM
  beating rate of NRCMs at basal and increased extracellular Ca2+: significantly reduced
[1]; isoproterenol 0.1, 1 or 10 μM
  response of NRCMs to increasing concentrations of isoproterenol: reduced the response
[2]; NRCM clusters
  chronotropic effect (Δ beats/min), mean±SE: −27.0±1.2 beats/min
[2]; compound alone
  agonistic / chronotropic effect on NRCMs, in words: Agonists
other
  melting point: 83.1 to 83.3 °C
